Assay results: publication PMC4286194 (Biochemical Journal, 2015)
Where two headings read alike, the source gives them in different places.

Tests used:
CK1 gamma 2 = CK1 gamma 2 (Homo sapiens, UniProt P78368); assay: Kinase profiling; format: biochemical
NUAK1 = biological target: T1, NUAK1 (Homo sapiens, UniProt O60285); assay: Kinase profiling; format: biochemical
T1 sequence (O60285 1-661): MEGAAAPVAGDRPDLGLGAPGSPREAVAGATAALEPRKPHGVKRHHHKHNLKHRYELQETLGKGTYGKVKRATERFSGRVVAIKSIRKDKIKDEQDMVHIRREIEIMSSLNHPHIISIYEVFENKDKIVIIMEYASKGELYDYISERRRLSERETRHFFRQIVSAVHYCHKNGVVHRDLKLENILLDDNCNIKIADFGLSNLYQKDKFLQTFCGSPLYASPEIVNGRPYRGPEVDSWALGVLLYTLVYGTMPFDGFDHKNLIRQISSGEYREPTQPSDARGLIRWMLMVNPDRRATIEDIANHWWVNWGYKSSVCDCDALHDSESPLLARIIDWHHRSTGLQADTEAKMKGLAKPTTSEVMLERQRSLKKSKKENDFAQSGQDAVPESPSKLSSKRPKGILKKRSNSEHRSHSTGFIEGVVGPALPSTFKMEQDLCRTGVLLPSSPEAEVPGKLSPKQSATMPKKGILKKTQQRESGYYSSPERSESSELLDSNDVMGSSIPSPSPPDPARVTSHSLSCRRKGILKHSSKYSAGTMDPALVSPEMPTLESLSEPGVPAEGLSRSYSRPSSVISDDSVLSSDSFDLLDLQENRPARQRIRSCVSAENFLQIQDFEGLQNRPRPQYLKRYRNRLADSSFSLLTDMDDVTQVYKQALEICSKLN

HIPK3 = HIPK3 (Homo sapiens, UniProt Q9H422); assay: Kinase profiling; format: biochemical
Chain of HIPK3 (Q9H422 whole entry): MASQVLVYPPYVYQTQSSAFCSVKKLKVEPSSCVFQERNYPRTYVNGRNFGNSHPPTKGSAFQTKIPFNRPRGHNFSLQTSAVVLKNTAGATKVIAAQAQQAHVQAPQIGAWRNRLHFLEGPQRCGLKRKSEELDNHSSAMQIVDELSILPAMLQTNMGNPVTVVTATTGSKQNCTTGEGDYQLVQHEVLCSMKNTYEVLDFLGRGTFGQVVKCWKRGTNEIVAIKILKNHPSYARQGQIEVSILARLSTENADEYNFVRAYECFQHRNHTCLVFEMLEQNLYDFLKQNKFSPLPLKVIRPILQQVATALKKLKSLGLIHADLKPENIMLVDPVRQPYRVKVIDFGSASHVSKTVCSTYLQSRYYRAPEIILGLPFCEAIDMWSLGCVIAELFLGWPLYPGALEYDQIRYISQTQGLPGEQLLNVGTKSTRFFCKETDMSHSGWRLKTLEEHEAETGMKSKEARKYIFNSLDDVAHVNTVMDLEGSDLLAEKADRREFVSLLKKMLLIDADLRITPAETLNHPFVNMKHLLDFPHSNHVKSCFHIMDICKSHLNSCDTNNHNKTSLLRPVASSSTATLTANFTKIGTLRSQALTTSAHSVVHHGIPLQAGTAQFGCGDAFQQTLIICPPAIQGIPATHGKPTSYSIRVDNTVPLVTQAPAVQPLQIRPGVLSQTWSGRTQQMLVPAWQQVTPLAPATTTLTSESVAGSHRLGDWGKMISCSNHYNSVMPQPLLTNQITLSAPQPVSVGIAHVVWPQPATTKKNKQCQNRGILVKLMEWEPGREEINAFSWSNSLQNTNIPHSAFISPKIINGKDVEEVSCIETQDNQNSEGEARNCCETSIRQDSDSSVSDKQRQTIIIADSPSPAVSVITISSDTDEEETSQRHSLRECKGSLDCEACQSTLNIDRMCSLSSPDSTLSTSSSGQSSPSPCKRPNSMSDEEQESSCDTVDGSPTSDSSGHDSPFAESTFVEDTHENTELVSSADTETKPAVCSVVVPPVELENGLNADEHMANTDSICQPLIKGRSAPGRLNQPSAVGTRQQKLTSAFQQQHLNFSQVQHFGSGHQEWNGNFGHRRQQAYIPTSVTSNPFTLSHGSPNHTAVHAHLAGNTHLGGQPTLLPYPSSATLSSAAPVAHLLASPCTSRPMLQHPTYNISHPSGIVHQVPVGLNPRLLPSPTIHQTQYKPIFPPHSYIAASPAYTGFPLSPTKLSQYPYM

MNK2 = MNK2 (Homo sapiens, UniProt Q9HBH9); assay: Kinase profiling; format: biochemical
Chain of MNK2 (Q9HBH9 whole entry): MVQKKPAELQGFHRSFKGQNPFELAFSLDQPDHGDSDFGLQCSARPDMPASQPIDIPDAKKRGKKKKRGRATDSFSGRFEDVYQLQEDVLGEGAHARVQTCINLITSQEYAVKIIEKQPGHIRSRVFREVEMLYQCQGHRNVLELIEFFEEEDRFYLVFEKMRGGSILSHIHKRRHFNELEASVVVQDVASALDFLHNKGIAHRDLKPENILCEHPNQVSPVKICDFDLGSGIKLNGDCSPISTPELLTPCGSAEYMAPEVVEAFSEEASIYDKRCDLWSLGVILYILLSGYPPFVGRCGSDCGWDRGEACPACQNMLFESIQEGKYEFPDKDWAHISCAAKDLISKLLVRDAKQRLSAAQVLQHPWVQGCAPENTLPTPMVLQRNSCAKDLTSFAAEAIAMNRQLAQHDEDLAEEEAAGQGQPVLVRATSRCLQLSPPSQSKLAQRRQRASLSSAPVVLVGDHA

CHK1 = biological target: T2, CHK1 (Homo sapiens, UniProt O14757); assay: Kinase profiling; format: biochemical
T2 sequence (O14757 1-476): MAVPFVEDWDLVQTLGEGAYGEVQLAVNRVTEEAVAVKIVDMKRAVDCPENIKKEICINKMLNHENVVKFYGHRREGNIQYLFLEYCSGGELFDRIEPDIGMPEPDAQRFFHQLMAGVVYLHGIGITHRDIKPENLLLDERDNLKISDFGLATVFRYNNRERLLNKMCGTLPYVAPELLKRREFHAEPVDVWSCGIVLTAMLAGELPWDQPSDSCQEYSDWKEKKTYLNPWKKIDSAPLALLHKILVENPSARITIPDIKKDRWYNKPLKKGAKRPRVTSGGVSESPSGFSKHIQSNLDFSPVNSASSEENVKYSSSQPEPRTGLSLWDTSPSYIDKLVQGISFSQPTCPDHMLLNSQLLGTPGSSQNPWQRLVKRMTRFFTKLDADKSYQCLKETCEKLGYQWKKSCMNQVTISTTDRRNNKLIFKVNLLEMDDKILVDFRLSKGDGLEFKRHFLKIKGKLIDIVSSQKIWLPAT

[1] = system: Bone-marrow-derived macrophages; assay: IL-10 mRNA (qPCR) in LPS-stimulated macrophages; format: cell-based; settings: Mus musculus, Macrophage, read-out: EC50 for elevation of IL-10 mRNA
Method: Primary macrophages were generated by differentiating bone marrow from 6- to 12-week-old C57BL/6 mice for 7 days in Dulbecco's modified Eagle's medium (DMEM) supplemented with 5 ng/ml recombinant M-CSF (R&D systems), 2 mM glutamine, 10% FBS, penicillin and streptomycin. Bone-marrow-derived macrophages were differentiated on non-tissue-culture-treated plastic, harvested and replated at a density of 100000 cells/cm^2 per 0.1 ml on tissue culture-treated plastic in fresh medium before stimulation on day 8. RAW264.7 cells were cultured in DMEM containing 10% FBS, 2 mM glutamine and penicillin and streptomycin. […] Cells were treated for 1 h with or without inhibitors and then stimulated for up to 24 h with either 1 μg/ml Pam3CSK4 or 100 ng/ml LPS.
mRNA was extracted from cells using the MicroElute Total RNA kit following the manufacturers’ instructions (Omega Bio-Tek). cDNA was generated from 0.5 μg of total RNA using the iScript cDNA synthesis kit and quantified by quantitative real-time PCR (qPCR) using the SsoFast EvaGreen Supermix on a CFX384 real-time system (Bio-Rad Laboratories). The relative expression of each gene was calculated from CT values using the Pfaffl method and was normalized against the mRNA levels of housekeeping genes including 18S RNA and GAPDH.

PKC zeta = biological target: T3, PKC zeta (Homo sapiens, UniProt Q05513); assay: Kinase profiling; format: biochemical
T3 sequence (Q05513 1-592): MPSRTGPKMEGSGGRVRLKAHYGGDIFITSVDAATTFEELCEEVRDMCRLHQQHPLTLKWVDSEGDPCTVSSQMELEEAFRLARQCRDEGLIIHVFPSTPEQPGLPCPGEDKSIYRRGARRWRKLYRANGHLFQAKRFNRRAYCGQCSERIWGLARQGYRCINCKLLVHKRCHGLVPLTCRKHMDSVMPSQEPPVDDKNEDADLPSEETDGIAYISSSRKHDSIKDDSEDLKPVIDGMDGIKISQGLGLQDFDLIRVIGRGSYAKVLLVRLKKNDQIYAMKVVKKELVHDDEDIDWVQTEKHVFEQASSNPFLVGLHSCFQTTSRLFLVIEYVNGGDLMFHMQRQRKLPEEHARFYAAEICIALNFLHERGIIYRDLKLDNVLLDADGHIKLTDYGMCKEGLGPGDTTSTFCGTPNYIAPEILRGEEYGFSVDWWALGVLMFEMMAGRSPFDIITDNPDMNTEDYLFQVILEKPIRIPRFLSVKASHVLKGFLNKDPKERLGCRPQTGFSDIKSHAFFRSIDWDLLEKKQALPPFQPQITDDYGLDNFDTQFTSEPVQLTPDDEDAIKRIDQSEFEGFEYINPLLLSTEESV

IRAK1 = IRAK1 (Homo sapiens, UniProt P51617); assay: Kinase profiling; format: biochemical
Chain of IRAK1 (P51617 whole entry): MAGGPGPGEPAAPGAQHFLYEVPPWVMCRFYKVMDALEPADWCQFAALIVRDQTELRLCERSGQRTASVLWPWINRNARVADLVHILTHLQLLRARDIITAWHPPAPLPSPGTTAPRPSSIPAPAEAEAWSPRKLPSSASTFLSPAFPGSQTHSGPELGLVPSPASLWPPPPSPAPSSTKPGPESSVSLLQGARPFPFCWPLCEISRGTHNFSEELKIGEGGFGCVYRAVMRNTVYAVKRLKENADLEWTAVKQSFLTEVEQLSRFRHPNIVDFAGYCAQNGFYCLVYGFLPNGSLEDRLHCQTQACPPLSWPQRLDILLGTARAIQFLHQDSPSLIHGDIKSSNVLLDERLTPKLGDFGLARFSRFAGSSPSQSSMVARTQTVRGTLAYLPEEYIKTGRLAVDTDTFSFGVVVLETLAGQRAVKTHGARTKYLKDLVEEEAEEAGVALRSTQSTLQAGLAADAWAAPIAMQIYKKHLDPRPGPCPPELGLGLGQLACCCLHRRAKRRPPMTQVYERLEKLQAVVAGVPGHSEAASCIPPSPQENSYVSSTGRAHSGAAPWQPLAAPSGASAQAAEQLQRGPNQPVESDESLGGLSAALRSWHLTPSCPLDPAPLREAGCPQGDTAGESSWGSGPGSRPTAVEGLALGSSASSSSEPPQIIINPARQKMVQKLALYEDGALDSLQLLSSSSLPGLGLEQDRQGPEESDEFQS

Chain of CK1 gamma 2 (P78368 whole entry): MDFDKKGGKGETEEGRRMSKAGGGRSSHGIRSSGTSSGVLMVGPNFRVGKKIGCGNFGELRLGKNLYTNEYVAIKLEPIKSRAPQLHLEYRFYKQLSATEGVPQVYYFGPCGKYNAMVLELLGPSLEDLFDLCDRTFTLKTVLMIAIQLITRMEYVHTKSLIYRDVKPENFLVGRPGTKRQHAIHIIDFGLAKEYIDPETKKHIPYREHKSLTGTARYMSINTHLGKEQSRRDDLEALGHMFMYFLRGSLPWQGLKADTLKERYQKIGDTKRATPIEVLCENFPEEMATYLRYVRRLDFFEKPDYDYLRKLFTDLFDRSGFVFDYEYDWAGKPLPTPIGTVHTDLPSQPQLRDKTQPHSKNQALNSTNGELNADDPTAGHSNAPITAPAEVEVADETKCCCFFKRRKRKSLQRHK

Structure (SMILES): COc1cc(Nc2c(C#N)cnc3cc(OCCCN4CCN(C)CC4)c(OC)cc23)c(Cl)cc1Cl [Bosutinib, bosutinib]
- remaining activity at 0.1 µM (CK1 gamma 2): 117 ± 1%
- remaining activity at 1 µM (CK1 gamma 2): 108 ± 4%
- remaining activity at 0.1 µM (NUAK1): 63 ± 12%
- remaining activity at 1 µM (NUAK1): 21 ± 2%
- remaining activity at 1 µM (HIPK3): 66 ± 5%
- remaining activity at 0.1 µM (MNK2): 87 ± 6%
- remaining activity at 1 µM (MNK2): 100 ± 9%
- remaining activity at 0.1 µM (CHK1): 91 ± 2%
- remaining activity at 1 µM (CHK1): 57%
- EC50 ([1]; drug 1 h, then LPS 1 h, qPCR, n=4): 320 nM
- remaining activity at 0.1 µM (PKC zeta): 91 ± 2%
- remaining activity at 1 µM (PKC zeta): 102 ± 4%
- remaining activity at 0.1 µM (IRAK1): 77 ± 3%
- remaining activity at 1 µM (IRAK1): 65%

Structure (SMILES): Cc1nc(Nc2ncc(C(=O)Nc3c(C)cccc3Cl)s2)cc(N2CCN(CCO)CC2)n1 [Dasatinib]
- remaining activity at 0.1 µM (CK1 gamma 2): 115%
- remaining activity at 1 µM (CK1 gamma 2): 113 ± 12%
- remaining activity at 0.1 µM (NUAK1): 119 ± 10%
- remaining activity at 1 µM (NUAK1): 118 ± 8%
- remaining activity at 0.1 µM (HIPK3; 0.1 µM): 102 ± 3%
- remaining activity at 1 µM (HIPK3): 113 ± 7%
- remaining activity at 0.1 µM (MNK2): 97 ± 8%
- remaining activity at 1 µM (MNK2): 106 ± 2%
- remaining activity at 0.1 µM (CHK1): 100 ± 6%
- remaining activity at 1 µM (CHK1): 96 ± 6%
- EC50 ([1]; 1 h): 100 nM
- remaining activity at 0.1 µM (PKC zeta): 101 ± 3%
- remaining activity at 1 µM (PKC zeta): 109 ± 7%
- remaining activity at 0.1 µM (IRAK1): 96 ± 1%
- remaining activity at 1 µM (IRAK1): 108 ± 3%
